Results reported in US8580321B2, “Method for reducing the effects of chemotherapy using flagellin related polypeptides” (priority 2003, dated 2013).

B1: BB′: flagellin fragment (56-177)-Linker-(402-450), SEQ ID NO: 14 (protein)
chain: MRGSHHHHHHGMASMTGGQQMGRDLYDDDDKDPFTSNIKGLTQASRNANDGISIAQTTEGALNEINNNLQRVRELSVQATNGTNSDSDLKSIQDEIQQRLEEIDRVSNQTQFNGVKVLSQDNQMKIQVGANDGETITIDLQKIDVKSLGLDGFNVNSPGISGGGGGILDSMGTLINEDAAAAKKSTANPLASIDSALSKVDAVRSSLGAIQNRFDSAITNL
modifications: Salmonella dublin
B2: AB′: flagellin fragment (1-177)-Linker-(402-450), SEQ ID NO: 10 (protein)
chain: MRGSHHHHHHGMASMTGGQQMGRDLYDDDDKDPMAQVINTNSLSLLTQNNLNKSQSSLSSAIERLSSGLRINSAKDDAAGQAIANRFTSNIKGLTQASRNANDGISIAQTTEGALNEINNNLQRVRELSVQATNGTNSDSDLKSIQDEIQQRLEEIDRVSNQTQFNGVKVLSQDNQMKIQVGANDGETITIDLQKIDVKSLGLDGFNVNSPGISGGGGGILDSMGTLINEDAAAAKKSTANPLASIDSALSKVDAVRSSLGAIQNRFDSAITNL
modifications: Salmonella dublin
B3: AB′n1-163: flagellin variant N-terminal 1-163, C-terminal 402-450, SEQ ID NO: 40 (protein)
chain: MRGSHHHHHHGMASMTGGQQMGRDLYDDDDKDPMAQVINTNSLSLLTQNNLNKSQSSLSSAIERLSSGLRINSAKDDAAGQAIANRFTSNIKGLTQASRNANDGISIAQTTEGALNEINNNLQRVRELSVQATNGTNSDSDLKSIQDEIQQRLEEIDRVSNQTQFNGVKVLSQDNQMKIQVGANDGETITIDLQKIIPGISGGGGGILDSMGTLINEDAAAAKKSTANPLASIDSALSKVDAVRSSLGAIQNRFDSAITNL
modifications: Salmonella dublin
B4: CB′: flagellin fragment (56-100)-Linker-(402-450), SEQ ID NO: 18 (protein)
chain: MRGSHHHHHHGMASMTGGQQMGRDLYDDDDKDPFTSNIKGLTQASRNANDGISIAQTTEGALNEINNNLQRVRELSVQATSPGISGGGGGILDSMGTLINEDAAAAKKSTANPLASIDSALSKVDAVRSSLGAIQNRFDSAITNL
modifications: Salmonella dublin
B5: AB′n1-70: flagellin variant N-terminal 1-70, C-terminal 402-450, SEQ ID NO: 56 (protein)
chain: MRGSHHHHHHGMASMTGGQQMGRDLYDDDDKDPMAQVINTNSLSLLTQNNLNKSQSSLSSAIERLSSGLRINSAKDDAAGQAIANRFTSNIKGLTQASRNANDIPGISGGGGGILDSMGTLINEDAAAAKKSTANPLASIDSALSKVDAVRSSLGAIQNRFDSAITNL
modifications: Salmonella dublin
B6: C: flagellin N-terminus (56-100), SEQ ID NO: 24 (protein)
chain: MRGSHHHHHHGMASMTGGQQMGRDLYDDDDKDPFTSNIKGLTQASRNANDGISIAQTTEGALNEINNNLQRVRELSVQATSPG
modifications: Salmonella dublin
B7: A: flagellin N-terminus (1-177), SEQ ID NO: 20 (protein)
chain: MRGSHHHHHHGMASMTGGQQMGRDLYDDDDKDPMAQVINTNSLSLLTQNNLNKSQSSLSSAIERLSSGLRINSAKDDAAGQAIANRFTSNIKGLTQASRNANDGISIAQTTEGALNEINNNLQRVRELSVQATNGTNSDSDLKSIQDEIQQRLEEIDRVSNQTQFNGVKVLSQDNQMKIQVGANDGETITIDLQKIDVKSLGLDGFNVNSPG
modifications: Salmonella dublin
B8: B: flagellin N-terminus (56-177), SEQ ID NO: 22 (protein)
chain: MRGSHHHHHHGMASMTGGQQMGRDLYDDDDKDPFTSNIKGLTQASRNANDGISIAQTTEGALNEINNNLQRVRELSVQATNGTNSDSDLKSIQDEIQQRLEEIDRVSNQTQFNGVKVLSQDNQMKIQVGANDGETITIDLQKIDVKSLGLDGFNVNSPG
modifications: Salmonella dublin
B9: AB′n1-170: flagellin variant N-terminal 1-170, C-terminal 402-450, SEQ ID NO: 38 (protein)
chain: MRGSHHHHHHGMASMTGGQQMGRDLYDDDDKDPMAQVINTNSLSLLTQNNLNKSQSSLSSAIERLSSGLRINSAKDDAAGQAIANRFTSNIKGLTQASRNANDGISIAQTTEGALNEINNNLQRVRELSVQATNGTNSDSDLKSIQDEIQQRLEEIDRVSNQTQFNGVKVLSQDNQMKIQVGANDGETITIDLQKIDVKSLGLIPGISGGGGGILDSMGTLINEDAAAAKKSTANPLASIDSALSKVDAVRSSLGAIQNRFDSAITNL
modifications: Salmonella dublin

The molecules below were run on NF-κB (assay: EMSA of NF-κB binding activity in HT29 human colon cancer cells). Settings: fragments 1 mg/ml, 15 min.
Format: cell-based
Procedure: We further minimized the AA′ flagellin fragment by producing additional fragments through stepwise removal of peptide fragments from its N-terminal half (Table 2). […] NF-κB binding activity in HT29 cells was stimulated with TNFa (10 ng/ml), or flagellin fragments (1 mg/ml) for 15 min.

| Molecule | induction of NF-κB translocation | level of NF-κB translocation relative to flagellin |
| --- | --- | --- |
| AA′n1-163: (1-163)-Linker-(402-505), SEQ ID NO: 34 | induce NF-κB translocation | comparable to that of flagellin |
| AA′n54-170: (54-170)-Linker-(402-505), SEQ ID NO: 32 | induce NF-κB translocation | comparable to that of flagellin |
| AA′n54-163: (54-163)-Linker-(402-505), SEQ ID NO: 36 | induce NF-κB translocation | – |

Each molecule was assayed on mice treated with total body gamma radiation (assay: Mouse survival after total body gamma irradiation (radioprotection)). Settings: s.c. 5.0 μg/mouse (0.2 mg/kg), 1 hour before 11 Gy.
Format: in vivo
Procedure: Whole body irradiation of mice with 15 Gy gamma radiation caused death within 8 days from GI syndrome providing a conventional model of radiation induced damage of GI tract. To test whether flagellin was capable of protecting GI epithelium from IR, we tested the effect of i.v.-injected flagellin on the dynamics of mouse lethality after 15 Gy of radiation. […] Irradiation was done 4 hours post treatment. As expected, control irradiated mice (that received PBS i.v.) died between 5 and 8 days post-treatment. […] Intravenous, intraperitoneal and subcutaneous delivery of 0.2 mg/kg of flagellin followed by 13 Gy irradiation afforded similar degree of protection, leading to 85-90% 30-day survival of mice (data not shown). While not being bound by theory, flagellin may be a radioprotectant due to its activation of NF-κB, which presumably acts as an inhibitor of apoptotic death.
The experiments were done similarly to the above-described ones (FIGS. 14 and 15), however, instead of 15Gy, mice received 10Gy, the dose that caused 100% killing in control group by day 13 (FIG. 6).
In order to further estimate the dependence of radioprotective activity of flagellin on the time of treatment, mice were injected at several time points relative to the moment of gamma-irradiation. Experiments were performed essentially as explained above, using intraperitoneal injection of 5 μg/mouse (0.2 mg/kg) of full-length flagellin or, for control mice, 5 μg/mouse (0.2 mg/kg) of bacterial RNA polymerase. The experiments were performed using the NIH-Swiss mouse strain. […] Only −1 h graph is shown for clarity, however, both timepoints (−1 and −2 h) provide similar degree and dynamics of survival.
We next obtained an estimate of radiation dose-dependent protection for flagellin. As shown above (FIG. 7), treatment with flagellin was sufficient for 100% protection against 10 Gy gamma-irradiation (this dose causes death from hematopoietic syndrome) and 90% 30-day survival at 13 Gy (both hematopoietic and GI syndromes). Experiments were performed as described above, using flagellin 5 μg/mouse (0.2 mg/kg), intraperitoneally injected 1 h before irradiation.
As shown above, full-length flagellin provides protection from both hematopoietic and gastrointestinal syndromes. The radioprotective potential of flagellin fragments was similarly tested after gamma-irradiation with 11 Gy (dose that induces hematopoietic syndrome-associated mortality in mice) or 14 Gy (dose that causes death from GI syndrome). Mice (10 animals per group) were injected subcutaneously with 5.0 μg/mouse (0.2 mg/kg) of flagellin or its fragments, AA′ or BB′, and gamma-irradiated 1 hour later.
In order to explore the limits of radioprotection provided by the AA′ fragment, we irradiated mice with 17 Gy and 20 Gy single doses of total body gamma-radiation.
We tested the ability of AA′ to protect mice that were exposed to it. A group of 20 NIH-Swiss mice were subcutaneously injected with 5 μg/mouse (0.2 mg/kg) of AA′. A second injection of a equal dose of AA′ was administered after 21 (10 mice) and 28 days (another 10 mice), with the time elapsed being sufficient for formation of antibodies. The second injection of AA′ was followed by 13 Gy of whole-body gamma irradiation (1 h post-injection).
Repetitive irradiation within a short period of time may be common, for example, in space radiation events and in clinical radiotherapy regimens. We tested the ability of the AA′ flagellin fragment to protect mice from sub-lethal (4 treatments of 3 Gy) and 100% lethal (4 treatments of 4 Gy) regimens of fractionated gamma-irradiation. Fragment AA′ or saline buffer was given to NIH-Swiss female mice before every irradiation (once a day for 4 days). AA′ was administered as described above for single-dose irradiation (5 μg/mouse, given subcutaneously 1 h before irradiation). […]
We have extensively confirmed that AA′ protects NIH-Swiss and ICR mice from radiation. […]

| Molecule | 30-day survival, 11 Gy |
| --- | --- |
| B1 | 0% |

Same assay, conditions: s.c. 5.0 μg/mouse (0.2 mg/kg), 1 hour before 14 Gy

| Molecule | 30-day survival, 14 Gy |
| --- | --- |
| B1 | 0% |

What follows are molecules tested on NF-κB (assay: EMSA of NF-κB translocation / DNA binding in A549 cells). Settings: A549 cells, 1 μg/ml, 45 min, EMSA of whole cell extracts.

| Molecule | NF-κB Stimulation |
| --- | --- |
| AA′n1-163: (1-163)-Linker-(402-505), SEQ ID NO: 34 | Yes |
| AA′n1-129: flagellin variant N-terminal 1-129, C-terminal 402-505, SEQ ID NO: 42 | Yes |
| AA′n54-170: (54-170)-Linker-(402-505), SEQ ID NO: 32 | Yes |
| BA′: flagellin fragment (56-177)-Linker-(402-505), SEQ ID NO: 12 | Yes |
| GST-A′: GST-Linker-(402-505), SEQ ID NO: 26 | No |
| CA′: flagellin fragment (56-100)-Linker-(402-505), SEQ ID NO: 16 | No |
| AA′n54-129: flagellin variant N-terminal 54-129, C-terminal 402-505, SEQ ID NO: 44 | Yes |
| AA′n1-70: flagellin variant N-terminal 1-70, C-terminal 402-505, SEQ ID NO: 54 | No |
| AA′n54-163: (54-163)-Linker-(402-505), SEQ ID NO: 36 | Yes |
| B2 | Yes |
| B3 | Yes |
| B4 | No |
| B5 | No |
| B6 | No |
| B1 | No |
| B7 | No |
| B8 | No |
| B9 | Yes |

Same assay, conditions: EMSA, A549 cells

| Molecule | level of NF-κB translocation, fragments versus flagellin |
| --- | --- |
| BA′: flagellin fragment (56-177)-Linker-(402-505), SEQ ID NO: 12 | comparable |
| B2 | comparable |

Same assay, conditions: EMSA, nuclear extracts of treated A549 lung cancer cells

| Molecule | inducing NF-κB translocation |
| --- | --- |
| BA′: flagellin fragment (56-177)-Linker-(402-505), SEQ ID NO: 12 | capable of inducing NF-κB translocation |
| B2 | capable of inducing NF-κB translocation |
